Assay results: patent US20230210999A1, “TARGETED PROTEASE DEGRADATION (TED) PLATFORM” (EUBULUS BIOTHERAPEUTICS INC., priority 2020, published 2023)
Like-named read-outs stand apart in the source and are kept apart here.

How the values were obtained:
Format in all cases: cell-based, human
NCIH82 cells = assay: Cell proliferation experiment, NCI-H82; details: read-out: Inhibitory activity IC50 on NCI-H82
How it was run: (§1)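 Log-phase cells seeded, then exposed 72 h to test compound in a 5-fold dilution series, duplicate wells per concentration. Growth read by Alamar blue fluorescence; […].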

MV4;11 cells = assay: Cell proliferation experiment (Alamar blue, 72 h), MV4;11; details: read-out: Inhibitory activity IC50 on MV4;11
How it was run: as §1

PC-3 = assay: Cell proliferation experiment, PC-3; details: read-out: Inhibitory activity IC50 on PC-3
Description: (§2) Reagents: RPMI-1640 medium, McCoy's 5A medium, IMDM medium, MEM medium, L-15 medium, fetal bovine serum. Penicillin-Streptomycin double antibody, trypsin, etc., 2-mercaptoethanol, NEAA, pyruvate, etc.
(§3) The cells were cultured in conventional ways, and the cells should be passed at least 2 generations before plating. Cells at the logarithmic growth phase were collected, prepared into single cell suspensions and counted. The concentration of cells was adjusted to the desired concentration, and cells were inoculated into a 96-well cell culture plate at 100 μl per well. 100 μL of complete medium of the test compound were added to each well, set up 2 duplicate wells for each concentration, and diluted with a 5-fold gradient, and continued to culture for 72 h. All cells were subjected to IC50 test for corresponding samples. The experimental results are shown in Test Example 4.
(§4) The fluorescence intensity of each well was detected using the Alarm blue method, and IC50 was calculated.
(§5) IC50 was calculated according to the following formula:
(§6) Y=Max+(Min−Max)/[1+(X/IC50)×Slope]
(§7) wherein Min, Max and Slope represent the minimum, maximum and slope respectively.

MDA-MB-231 cells = assay: Cell proliferation experiment, MDA-MB-231; details: read-out: Inhibitory activity IC50 on MDA-MB-231
Description: as §2, §3, §4, §5, §6, §7

[1] = Homo sapiens, NCI-H82, NCI-H82 cells
[2] = Homo sapiens, MV4-11, MV4;11 cells
[3] = Homo sapiens, MDA-MB-231, MDA-MB-231 cells

SMILES | IC50 (NCIH82 cells; [1]) [nM] | IC50 (MV4;11 cells; [2]) [nM] | IC50 (PC-3; Homo sapiens, PC-3, PC-3 cells) [nM] | IC50 (MDA-MB-231 cells; [3]) [nM] | IC50 (NCIH82 cells; NCI-H82 cells) [nM] | IC50 (MV4;11 cells; MV4;11 cells) [nM] | IC50 (PC-3; PC-3 cells) [nM] | IC50 (MDA-MB-231 cells; MDA-MB-231 cells) [nM]
O=C1CCC(N2Cc3cc(NC(=O)CCNCCOCCOCCNC(=O)[C@]4(Cc5cccc(Nc6nccs6)n5)CC[C@@H](Oc5cccc(Cl)c5F)CC4)ccc3C2=O)C(=O)N1 (stereo partly drawn) [UB-181031] | > 1000 | > 1000 | > 1000 | > 1000 |  |  |  | 
O=C1CCC(N2Cc3cc(NC(=O)CNCCCOCCOCCNC(=O)[C@]4(Cc5cccc(Nc6nccs6)n5)CC[C@@H](Oc5cccc(Cl)c5F)CC4)ccc3C2=O)C(=O)N1 (stereo partly drawn) [UB-181032] | > 1000 | 100 to 1000 | > 1000 | > 1000 |  |  |  | 
O=C1CCC(N2Cc3cc(NC(=O)CCNCCCOCCCCNC(=O)[C@]4(Cc5cccc(Nc6nccs6)n5)CC[C@@H](Oc5cccc(Cl)c5F)CC4)ccc3C2=O)C(=O)N1 (stereo partly drawn) [UB-181034] | > 1000 | 100 to 1000 | > 1000 | > 1000 |  |  |  | 
O=C1CCC(N2Cc3c(NC(=O)CNCCCOCCOCCNC(=O)[C@]4(Cc5cccc(Nc6nccs6)n5)CC[C@@H](Oc5cccc(Cl)c5F)CC4)cccc3C2=O)C(=O)N1 (stereo partly drawn) [UB-181035] | > 1000 | 100 to 1000 | > 1000 | > 1000 |  |  |  | 
O=C1CCC(N2Cc3cc(NC(=O)CCOCCOCCOCCN[C@H]4CC[C@@H](NC(=O)[C@]5(Cc6cccc(Nc7nccs7)n6)CC[C@@H](Oc6cccc(Cl)c6F)CC5)CC4)ccc3C2=O)C(=O)N1 (stereo partly drawn) [UB-181038] | > 1000 | > 1000 | > 1000 | > 1000 |  |  |  | 
CNC(=O)c1ccccc1Nc1nc(Nc2ccc(N3CCN(C(=O)NCCOCCOCCNCCC(=O)Nc4ccc5c(c4)CN(C4CCC(=O)NC4=O)C5=O)CC3)cc2)ncc1Cl (stereo not drawn) [UB-181039] | 100 to 1000 | 10 to 100 | > 1000 | > 1000 |  |  |  | 
CNC(=O)c1ccccc1Nc1nc(Nc2ccc(N3CCN(C(=O)NCCOCCOCCCNCC(=O)Nc4cccc5c4CN(C4CCC(=O)NC4=O)C5=O)CC3)cc2)ncc1Cl (stereo not drawn) [UB-181040] | > 1000 | 10 to 100 | > 1000 | > 1000 |  |  |  | 
CNC(=O)c1ccccc1Nc1nc(Nc2ccc(N3CCN(C(=O)NCCOCCOCCNCCC(=O)Nc4cccc5c4CN(C4CCC(=O)NC4=O)C5=O)CC3)cc2)ncc1Cl (stereo not drawn) [UB-181043] | 100 to 1000 | < 10 | > 1000 | > 1000 |  |  |  | 
CNC(=O)c1ccccc1Nc1nc(Nc2ccc(N3CCN(C(=O)NCCNCCOCCOCCC(=O)Nc4ccc5c(c4)CN(C4CCC(=O)NC4=O)C5=O)CC3)cc2)ncc1Cl (stereo not drawn) [UB-181044] | 100 to 1000 | 10 to 100 | > 1000 | > 1000 |  |  |  | 
CNC(=O)c1ccccc1Nc1nc(Nc2ccc(N3CCN(C(=O)NCCCCOCCCNCCC(=O)Nc4ccc5c(c4)CN(C4CCC(=O)NC4=O)C5=O)CC3)cc2)ncc1Cl (stereo not drawn) [UB-181046] |  |  |  |  | 100 to 1000 | < 10 | > 1000 | > 1000
CNC(=O)c1ccccc1Nc1nc(Nc2ccc(N3CCN(C(=O)NCCOCCNCCOCCC(=O)Nc4ccc5c(c4)CN(C4CCC(=O)NC4=O)C5=O)CC3)cc2)ncc1Cl (stereo not drawn) [UB-181050] | 100 to 1000 | 100 to 1000 | > 1000 | > 1000 |  |  |  | 
CNC(=O)c1ccccc1Nc1nc(Nc2ccc(N3CCN(C(=O)NCCOCCNCCOCCC(=O)Nc4cccc5c4CN(C4CCC(=O)NC4=O)C5=O)CC3)cc2)ncc1Cl (stereo not drawn) [UB-181051] | > 1000 | 10 to 100 | > 1000 | > 1000 |  |  |  | 
CNC(=O)c1ccccc1Nc1nc(Nc2ccc(N3CCN(C(=O)NCCNCCC(=O)Nc4cccc5c4CN(C4CCC(=O)NC4=O)C5=O)CC3)cc2)ncc1Cl (stereo not drawn) [UB-181053] | 100 to 1000 | 10 to 100 | > 1000 | > 1000 |  |  |  | 
CNC(=O)c1ccccc1Nc1nc(Nc2ccc(N3CCN(C(=O)NCCNCCCC(=O)Nc4cccc5c4CN(C4CCC(=O)NC4=O)C5=O)CC3)cc2)ncc1Cl (stereo not drawn) [UB-181055] | 100 to 1000 | 10 to 100 | > 1000 | > 1000 |  |  |  | 
CNC(=O)c1ccccc1Nc1nc(Nc2ccc(N3CCN(C(=O)NCCCNCCOCC(=O)Nc4cccc5c4CN(C4CCC(=O)NC4=O)C5=O)CC3)cc2)ncc1Cl (stereo not drawn) [UB-181061] | 100 to 1000 | < 10 | > 1000 | 100 to 1000 |  |  |  | 
CNC(=O)c1ccccc1Nc1nc(Nc2ccc(N3CCN(C(=O)NCCCNCCOCC(=O)Nc4ccc5c(c4)CN(C4CCC(=O)NC4=O)C5=O)CC3)cc2)ncc1Cl (stereo not drawn) [UB-181062] | 100 to 1000 | 10 to 100 | > 1000 | > 1000 |  |  |  | 
NC(COCCOCCNC(=O)[C@]1(Cc2cccc(Nc3nccs3)n2)CC[C@@H](Oc2cccc(Cl)c2F)CC1)COCCC(=O)Nc1ccc2c(c1)CN(C1CCC(=O)NC1=O)C2=O (stereo partly drawn) [UB-181064] | > 1000 | > 1000 | > 1000 | > 1000 |  |  |  | 
CC[C@@H]1C(=O)N(C)c2cnc(Nc3ccc(-c4cn([C@H]5CC[C@@H](NCCCOCC#Cc6cccc7c6CN(C6CCC(=O)NC6=O)C7=O)CC5)nn4)cc3OC)nc2N1C1CCCC1 (stereo partly drawn) [UB-181089] |  | 10 to 100 | 10 to 100 | 10 to 100 |  |  |  | 
CC[C@@H]1C(=O)N(C)c2cnc(Nc3ccc(NC(=O)N[C@H]4CC[C@H](NCCOCCC#Cc5cccc6c5CN(C5CCC(=O)NC5=O)C6=O)CC4)cc3)nc2N1C1CCCC1 (stereo partly drawn) [UB-181126] |  | < 10 | 100 to 1000 | 100 to 1000 |  |  |  | 
CC[C@@H]1C(=O)N(C)c2cnc(Nc3ccc(-c4cn([C@H]5CC[C@@H](NCCOCCC#Cc6cccc7c6CN(C6CCC(=O)NC6=O)C7=O)CC5)nn4)nc3)nc2N1C1CCCC1 (stereo partly drawn) [UB-181153] |  | 10 to 100 | 100 to 1000 | 100 to 1000 |  |  |  | 

Other lines, results leading:

IC50 (NCIH82 cells; [1]) [nM] | IC50 (MV4;11 cells; [2]) [nM] | IC50 (PC-3; Homo sapiens, PC-3, PC-3 cells) [nM] | IC50 (MDA-MB-231 cells; [3]) [nM] | IC50 (NCIH82 cells; NCI-H82 cells) [nM] | IC50 (MV4;11 cells; MV4;11 cells) [nM] | IC50 (PC-3; PC-3 cells) [nM] | IC50 (MDA-MB-231 cells; MDA-MB-231 cells) [nM] | SMILES
> 1000 | 100 to 1000 | > 1000 | > 1000 |  |  |  |  | O=C1CCC(N2Cc3cc(NC(=O)CCNCCCOCCCCNC(=O)c4ccc(Nc5ncc6c(n5)-c5ccc(Cl)cc5C(c5c(F)cccc5F)=NC6)cc4)ccc3C2=O)C(=O)N1 (stereo not drawn) [UB-181033]
> 1000 | > 1000 | > 1000 | > 1000 |  |  |  |  | O=C1CCC(N2Cc3c(NC(=O)CCNCCOCCOCCNC(=O)[C@]4(Cc5cccc(Nc6nccs6)n5)CC[C@@H](Oc5cccc(Cl)c5F)CC4)cccc3C2=O)C(=O)N1 (stereo partly drawn) [UB-181036]
> 1000 | > 1000 | > 1000 | > 1000 |  |  |  |  | O=C1CCC(N2Cc3c(NC(=O)CCOCCOCCOCCN[C@H]4CC[C@@H](NC(=O)[C@]5(Cc6cccc(Nc7nccs7)n6)CC[C@@H](Oc6cccc(Cl)c6F)CC5)CC4)cccc3C2=O)C(=O)N1 (stereo partly drawn) [UB-181037]
> 1000 | > 1000 | > 1000 | > 1000 |  |  |  |  | O=C1CCC(N2Cc3cc(NC(=O)CCOCCNCCOCCn4cc(-c5ccc(Nc6ncc7c(n6)-c6ccc(Cl)cc6C(c6c(F)cccc6F)=NC7)cc5)nn4)ccc3C2=O)C(=O)N1 (stereo not drawn) [UB-181041]
100 to 1000 | 10 to 100 | > 1000 | > 1000 |  |  |  |  | CNC(=O)c1ccccc1Nc1nc(Nc2ccc(N3CCN(C(=O)NCCCCOCCCNCCC(=O)Nc4ccc5c(c4)CN(C4CCC(=O)NC4=O)C5=O)CC3)cc2)ncc1Cl (stereo not drawn) [UB-181042]
100 to 1000 | 10 to 100 | > 1000 | > 1000 |  |  |  |  | CNC(=O)c1ccccc1Nc1nc(Nc2ccc(N3CCN(C(=O)NCCOCCOCCCNCC(=O)Nc4ccc5c(c4)CN(C4CCC(=O)NC4=O)C5=O)CC3)cc2)ncc1Cl (stereo not drawn) [UB-181047]
100 to 1000 | 10 to 100 | > 1000 | > 1000 |  |  |  |  | CNC(=O)c1ccccc1Nc1nc(Nc2ccc(N3CCN(C(=O)NCCNCCCC(=O)Nc4ccc5c(c4)CN(C4CCC(=O)NC4=O)C5=O)CC3)cc2)ncc1Cl (stereo not drawn) [UB-181056]
100 to 1000 | < 10 | > 1000 | > 1000 |  |  |  |  | CNC(=O)c1ccccc1Nc1nc(Nc2ccc(N3CCN(C(=O)NCCNCCOCC(=O)Nc4cccc5c4CN(C4CCC(=O)NC4=O)C5=O)CC3)cc2)ncc1Cl (stereo not drawn) [UB-181057]
100 to 1000 | 10 to 100 | > 1000 | > 1000 |  |  |  |  | CNC(=O)c1ccccc1Nc1nc(Nc2ccc(N3CCN(C(=O)NCCNCCOCC(=O)Nc4ccc5c(c4)CN(C4CCC(=O)NC4=O)C5=O)CC3)cc2)ncc1Cl (stereo not drawn) [UB-181058]
10 to 100 | 10 to 100 | > 1000 | > 1000 |  |  |  |  | CNC(=O)c1ccccc1Nc1nc(Nc2ccc(N3CCN(C(=O)NCCOCCOCCOCCC(=O)Nc4ccc5c(c4)CN(C4CCC(=O)NC4=O)C5=O)CC3)cc2)ncc1Cl (stereo not drawn) [UB-181060]
 | < 10 | 100 to 1000 | 100 to 1000 |  |  |  |  | CC[C@@H]1C(=O)N(C)c2cnc(Nc3ccc(NC(=O)N[C@H]4CC[C@H](NCCOCCC#Cc5cccc6c5CN(C5CCC(=O)NC5=O)C6=O)CC4)cc3OC)nc2N1C1CCCC1 (stereo partly drawn) [UB-181130]
